Results on 20 molecules are retold here after PubChem BioAssay AID588807 (The Scripps Research Institute Molecular Screening Center, 2011).

Activity calls are given as the source filed them. No rule for the calls is given here.

The inhibition is the change of the read-out against control, counted positive when it falls.

Common to all, as to assay: competitive ABPP of Abhd10 versus anti-targets – biochemical, fluorescence, gel-based, mouse proteome, selectivity assay for PME-1 inhibitor project, late-stage follow-up (AID 588807)
Assay [1] deals with Palmitoyl-protein thioesterase ABHD10, mitochondrial (Mus musculus) (UniProt Q6PE15). The settings on record: stronger effect = higher value.
Chain of Palmitoyl-protein thioesterase ABHD10, mitochondrial (Mus musculus) (Q6PE15 whole entry, looked up): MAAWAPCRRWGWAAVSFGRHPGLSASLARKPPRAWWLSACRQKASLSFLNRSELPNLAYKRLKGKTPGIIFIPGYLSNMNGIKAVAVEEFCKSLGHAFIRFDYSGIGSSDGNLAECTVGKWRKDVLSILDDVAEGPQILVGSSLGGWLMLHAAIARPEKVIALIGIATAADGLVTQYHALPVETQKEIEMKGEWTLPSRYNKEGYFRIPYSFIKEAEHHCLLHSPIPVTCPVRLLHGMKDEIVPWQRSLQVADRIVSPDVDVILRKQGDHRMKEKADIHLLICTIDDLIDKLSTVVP
In assay [2] the test system is Kiaa1363. The settings on record: anti-target, at 10 µM, stronger effect = higher value.
Assay [3] concerns the target Monoacylglycerol lipase ABHD6 (Mus musculus) (UniProt Q8R2Y0). The following applies: anti-target, stronger effect = higher value.
The subject of assay [4] is Magl. The following applies: anti-target, stronger effect = higher value.
The test system of assay [5] is APEH. The settings on record: anti-target, stronger effect = higher value.
For assay [6], the target named is Prolyl endopeptidase (Mus musculus) (UniProt Q9QUR6). The following applies: PREP, anti-target, stronger effect = higher value.
Chain of Prolyl endopeptidase (Mus musculus) (Q9QUR6 whole entry, looked up): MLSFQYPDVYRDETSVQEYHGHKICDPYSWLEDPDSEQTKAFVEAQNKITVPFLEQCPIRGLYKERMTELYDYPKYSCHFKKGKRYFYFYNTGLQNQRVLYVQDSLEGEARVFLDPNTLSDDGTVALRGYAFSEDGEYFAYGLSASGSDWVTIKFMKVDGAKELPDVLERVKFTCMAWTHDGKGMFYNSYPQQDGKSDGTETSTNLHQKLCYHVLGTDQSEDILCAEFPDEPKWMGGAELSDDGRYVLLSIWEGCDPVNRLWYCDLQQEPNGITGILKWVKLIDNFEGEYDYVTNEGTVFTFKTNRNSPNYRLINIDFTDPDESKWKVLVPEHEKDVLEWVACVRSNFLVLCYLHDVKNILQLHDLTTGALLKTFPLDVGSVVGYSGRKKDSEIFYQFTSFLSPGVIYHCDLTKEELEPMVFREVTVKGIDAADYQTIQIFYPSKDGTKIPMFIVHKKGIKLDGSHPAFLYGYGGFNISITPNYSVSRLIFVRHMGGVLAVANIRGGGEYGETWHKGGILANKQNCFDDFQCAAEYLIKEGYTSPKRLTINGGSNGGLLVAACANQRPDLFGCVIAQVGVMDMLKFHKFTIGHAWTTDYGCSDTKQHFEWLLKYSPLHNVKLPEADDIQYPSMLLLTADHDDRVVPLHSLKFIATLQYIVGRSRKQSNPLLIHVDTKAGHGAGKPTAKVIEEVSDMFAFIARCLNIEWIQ

Chain of Monoacylglycerol lipase ABHD6 (Mus musculus) (Q8R2Y0 whole entry, looked up): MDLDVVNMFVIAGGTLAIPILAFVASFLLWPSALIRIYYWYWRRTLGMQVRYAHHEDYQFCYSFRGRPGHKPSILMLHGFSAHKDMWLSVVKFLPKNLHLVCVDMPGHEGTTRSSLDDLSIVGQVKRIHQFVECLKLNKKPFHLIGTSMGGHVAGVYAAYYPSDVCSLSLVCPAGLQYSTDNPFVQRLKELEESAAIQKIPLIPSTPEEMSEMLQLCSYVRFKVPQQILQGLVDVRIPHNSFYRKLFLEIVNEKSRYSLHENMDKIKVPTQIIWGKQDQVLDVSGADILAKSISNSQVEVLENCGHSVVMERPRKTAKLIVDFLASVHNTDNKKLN

As for `CC[C@@]1(c2cccc(C)c2)C(=O)N(C(=O)OCc2ccccc2)N1C(=O)OCc1ccccc1`, the inhibition was 95% (inactive) in assay [1] (at 10 µM); 20% in assay [1] (inhibition, at 0.1 µM); 65% in assay [1] (inhibition, at 1 µM); 75% (inactive) in assay [2]; 35% (inactive) in assay [3] (at 10 µM); 10% in assay [3] (inhibition, at 1 µM). In addition, the figures for the inhibition in assay [4] (at 10 µM), in assay [5] (at 10 µM) and in assay [6] (at 10 µM) were 0% (inactive), 0% (inactive) and 90% (inactive), respectively.

As for `CC[C@@]1(c2cccc(C)c2)C(=O)N(C(=O)OCC(Cl)(Cl)Cl)N1C(=O)OCC(Cl)(Cl)Cl`, the inhibition was 20% (inactive) in assay [1] (at 10 µM); 0% (inactive) in assay [2]; 0% (inactive) in assay [3] (at 10 µM); 0% (inactive) in assay [4] (at 10 µM); 0% (inactive) in assay [5] (at 10 µM); 10% (inactive) in assay [6] (at 10 µM).

For the molecule `C=CCOC(=O)N1N(C(=O)OC)C(=O)[C@@]1(CC)c1cccc(C)c1`, the inhibition is 90% (inactive) in assay [1] (at 10 µM); 10% in assay [1] (inhibition, at 0.1 µM); 75% in assay [1] (inhibition, at 1 µM); 25% (inactive) in assay [2]; 50% (inactive) in assay [3] (at 10 µM); 10% (inactive) in assay [4] (at 10 µM). The inhibition in assay [5] (at 10 µM) was 75% (inactive); in assay [6] (at 10 µM) it was 70% (inactive).

`CCCOC(=O)N1C(=O)C(CC)(c2cccc(C)c2)N1C(=O)OCCC` (centres undefined): the inhibition in assay [1] (at 10 µM) was 100% (inactive); in assay [1] (inhibition, at 0.1 µM), 10%; in assay [1] (inhibition, at 1 µM) it was 95%; in assay [2], 0% (inactive); in assay [3] (at 10 µM), 70% (inactive); in assay [4] (at 10 µM), 25% (inactive). In addition, the inhibition in assay [4] (inhibition, at 1 µM) is 10%; in assay [5] (at 10 µM), 10% (inactive); in assay [6] (at 10 µM), 60% (inactive); in assay [6] (inhibition, at 1 µM) it was 20%.

With `C=CCOC(=O)N1N(C(=O)OC)C(=O)[C@@]1(CC)c1ccccc1`, the inhibition in assay [1] (at 10 µM) was 90% (inactive); in assay [1] (inhibition, at 0.1 µM) it was 10%; in assay [1] (inhibition, at 1 µM) it was 60%; in assay [2], 55% (inactive); in assay [3] (at 10 µM) it was 60% (inactive); in assay [4] (at 10 µM) it was 20% (inactive). Also, the inhibition in assay [5] (at 10 µM) is 0% (inactive); in assay [6] (at 10 µM), 55% (inactive); in assay [6] (inhibition, at 0.1 µM) it was 10%; in assay [6] (inhibition, at 1 µM) it was 25%.

As to `CC[C@@]1(c2cccc(C)c2)C(=O)N(C(=O)OC(C)(C)C)N1C(=O)OC(C)(C)C`, the inhibition was 70% (inactive) in assay [1] (at 10 µM); 10% in assay [1] (inhibition, at 1 µM); 0% (inactive) in assay [2]; 10% (inactive) in assay [3] (at 10 µM); 0% (inactive) in assay [4] (at 10 µM); 0% (inactive) in assay [5] (at 10 µM). Further, the inhibition in assay [6] (at 10 µM) was 0% (inactive).

For the molecule `Cc1cccc([C@]2(C)C(=O)N(C(=O)OC(C)C)N2C(=O)OC(C)C)c1`, the inhibition in assay [1] (at 10 µM) was 100%; in assay [1] (inhibition, at 0.1 µM) it was 55%; in assay [1] (inhibition, at 1 µM) it was 95%; in assay [2], 0% (inactive); in assay [3] (at 10 µM), 0% (inactive); in assay [4] (at 10 µM), 10% (inactive). Also, the inhibition is 25% (inactive) in assay [5] (at 10 µM) and 40% (inactive) in assay [6] (at 10 µM).

As to `C=CCOC(=O)N1C(=O)[C@@](CC)(c2cccc(C)c2)N1C(=O)OC`, the inhibition in assay [1] (at 10 µM) is 100% (inactive); in assay [1] (inhibition, at 0.1 µM) it was 10%; in assay [1] (inhibition, at 1 µM), 95%; in assay [2], 35% (inactive); in assay [3] (at 10 µM), 45% (inactive); in assay [4] (at 10 µM) it was 20% (inactive). Besides, the inhibition was 55% (inactive) in assay [5] (at 10 µM); 65% (inactive) in assay [6] (at 10 µM); 20% in assay [6] (inhibition, at 1 µM).

Consider `COC(=O)N1C(=O)[C@](c2ccccc2)(C2CCCC2)N1C(=O)OC`, for which the inhibition in assay [1] (at 10 µM) is 0% (inactive); in assay [2], 0% (inactive); in assay [3] (at 10 µM), 0% (inactive); in assay [4] (at 10 µM), 0% (inactive); in assay [5] (at 10 µM), 85% (inactive); in assay [6] (at 10 µM), 0% (inactive).

For the molecule `CC[C@@]1(c2ccc(OC)cc2)C(=O)N(C(=O)OC)N1C(=O)OC`, the inhibition in assay [1] (at 10 µM) is 100% (inactive); in assay [1] (inhibition, at 1 µM) it was 70%; in assay [2], 0% (inactive); in assay [3] (at 10 µM) it was 10% (inactive); in assay [4] (at 10 µM), 10% (inactive); in assay [5] (at 10 µM), 95% (inactive). For the same molecule, the inhibition in assay [5] (inhibition, at 1 µM) is 95%; in assay [6] (at 10 µM), 40% (inactive).

For `CC[C@@]1(c2ccc(Cl)c(Cl)c2)C(=O)N(C(=O)OC)N1C(=O)OC`, the inhibition is 90% (inactive) in assay [1] (at 10 µM); 20% in assay [1] (inhibition, at 0.1 µM); 70% in assay [1] (inhibition, at 1 µM); 0% (inactive) in assay [2]; 0% (inactive) in assay [3] (at 10 µM); 10% (inactive) in assay [4] (at 10 µM). For the same molecule, the figures for the inhibition in assay [5] (at 10 µM) and in assay [6] (at 10 µM) were 55% (inactive) and 25% (inactive), respectively.

Turning to `CCOC(=O)N1C(=O)[C@@](CC)(c2ccccc2)N1C(=O)OCC`, the inhibition in assay [1] (at 10 µM) was 100%; in assay [1] (inhibition, at 0.1 µM), 75%; in assay [1] (inhibition, at 1 µM) it was 100%; in assay [2] it was 0% (inactive); in assay [3] (at 10 µM), 65% (inactive); in assay [3] (inhibition, at 1 µM), 15%. Besides, the inhibition was 0% (inactive) in assay [4] (at 10 µM); 55% (inactive) in assay [5] (at 10 µM); 90% (inactive) in assay [6] (at 10 µM); 20% in assay [6] (inhibition, at 1 µM).

With `C=CCOC(=O)N1C(=O)[C@@](CC)(c2ccccc2)N1C(=O)OC`, the inhibition in assay [1] (at 10 µM) is 90% (inactive); in assay [1] (inhibition, at 0.1 µM) it was 10%; in assay [1] (inhibition, at 1 µM) it was 70%; in assay [2], 10% (inactive); in assay [3] (at 10 µM), 35% (inactive); in assay [3] (inhibition, at 1 µM), 10%. Further, the inhibition in assay [4] (at 10 µM) is 0% (inactive); in assay [5] (at 10 µM) it was 40% (inactive); in assay [6] (at 10 µM), 25% (inactive).

Consider `CC[C@]1(c2cccc(C)c2)C(=O)N(C(=O)OC(C)C)N1C(=O)OC(C)C`, for which the inhibition in assay [1] (at 10 µM) was 85% (inactive); in assay [1] (inhibition, at 0.1 µM) it was 30%; in assay [1] (inhibition, at 1 µM), 30%; in assay [2] it was 0% (inactive); in assay [3] (at 10 µM), 10% (inactive); in assay [4] (at 10 µM), 0% (inactive). Besides, the inhibition in assay [5] (at 10 µM) and in assay [6] (at 10 µM) was 0% (inactive) throughout.

For `CC[C@@]1(c2cccc(Cl)c2)C(=O)N(C(=O)OC)N1C(=O)OC`, the inhibition is 95% (inactive) in assay [1] (at 10 µM); 45% in assay [1] (inhibition, at 0.1 µM); 90% in assay [1] (inhibition, at 1 µM); 20% (inactive) in assay [2]; 65% (inactive) in assay [3] (at 10 µM); 10% (inactive) in assay [4] (at 10 µM). The inhibition in assay [5] (at 10 µM) and in assay [6] (at 10 µM) was 90% (inactive) each time.

As to `CCOC(=O)N1C(=O)[C@@](CC)(c2cccc(C)c2)N1C(=O)OCC`, the inhibition in assay [1] (at 10 µM) is 100%; in assay [1] (inhibition, at 0.1 µM), 75%; in assay [1] (inhibition, at 1 µM) it was 100%; in assay [2] it was 25% (inactive); in assay [3] (at 10 µM) it was 65% (inactive); in assay [4] (at 10 µM), 45% (inactive). Besides, the inhibition in assay [5] (at 10 µM) was 70% (inactive); in assay [6] (at 10 µM), 100% (inactive); in assay [6] (inhibition, at 0.1 µM), 20%; in assay [6] (inhibition, at 1 µM), 45%.

For the molecule `CC[C@@]1(c2cccc(F)c2)C(=O)N(C(=O)OC)N1C(=O)OC`, the inhibition in assay [1] (at 10 µM) was 95%; in assay [1] (inhibition, at 0.1 µM), 60%; in assay [1] (inhibition, at 1 µM), 95%; in assay [2], 0% (inactive); in assay [3] (at 10 µM), 25% (inactive); in assay [4] (at 10 µM), 25% (inactive). In addition, the inhibition in assay [5] (at 10 µM) was 0% (inactive); in assay [6] (at 10 µM), 70% (inactive); in assay [6] (inhibition, at 1 µM), 15%.

In the case of `CCCOC(=O)N1C(=O)[C@@](CC)(c2ccc(C)cc2)N1C(=O)OCCC`, the inhibition in assay [1] (at 10 µM) was 95%; in assay [1] (inhibition, at 0.1 µM) it was 95%; in assay [1] (inhibition, at 1 µM) it was 95%; in assay [2], 25% (inactive); in assay [3] (at 10 µM) it was 85% (inactive); in assay [3] (inhibition, at 0.1 µM), 10%. Moreover, the inhibition is 25% in assay [3] (inhibition, at 1 µM); 80% (inactive) in assay [4] (at 10 µM); 0% (inactive) in assay [5] (at 10 µM); 65% (inactive) in assay [6] (at 10 µM); 25% in assay [6] (inhibition, at 1 µM).

`Cc1cccc([C@]2(C)C(=O)N(C(=O)OCc3ccccc3)N2C(=O)OCc2ccccc2)c1`: the inhibition in assay [1] (at 10 µM) is 15% (inactive); in assay [2], 0% (inactive); in assay [3] (at 10 µM), 0% (inactive); in assay [4] (at 10 µM) it was 0% (inactive); in assay [5] (at 10 µM), 0% (inactive); in assay [6] (at 10 µM), 0% (inactive).

In the case of `CC[C@@]1(c2cccc(F)c2)C(=O)N(C(=O)OC(C)C)N1C(=O)OC(C)C`, the inhibition was 90% (inactive) in assay [1] (at 10 µM); 40% in assay [1] (inhibition, at 0.1 µM); 85% in assay [1] (inhibition, at 1 µM); 15% (inactive) in assay [2]; 0% (inactive) in assay [3] (at 10 µM); 10% (inactive) in assay [4] (at 10 µM). The inhibition in assay [5] (at 10 µM) was 100% (inactive); in assay [5] (inhibition, at 1 µM), 20%; in assay [6] (at 10 µM), 0% (inactive).
